The text below walks through data of publication PMC5298231, “The Malaria Parasite's Lactate Transporter PfFNT Is the Target of Antiplasmodial Compounds Identified in Whole Cell Phenotypic Screens” (PLoS Pathogens, 2017).

This experiment has as its system erythrocytes infected with 3D7 trophozoites. Type of experiment: cell-based, Plasmodium falciparum. Particulars: sheet Ratio; for Ratio of metabolite abundance, Exp1_1hr: Exp1, 1hr; for Ratio of metabolite abundance, Exp1_3hr: Exp1, 3hr; for Ratio of metabolite abundance, Exp1_6hr: Exp1, 6hr; for Ratio of metabolite abundance, Exp2_1hr: Exp2, 1hr; for Ratio of metabolite abundance, Exp2_3hr: Exp2, 3hr; for Ratio of metabolite abundance, Exp2_6hr: Exp2, 6hr; for Ratio of metabolite abundance, Exp3_1hr: Exp3, 1hr; for Ratio of metabolite abundance, Exp3_3hr: Exp3, 3hr; for Ratio of metabolite abundance, Exp3_6hr: Exp3, 6hr.

Counter-ions that a name gives are not always drawn. Peptide text beside a SMILES is read from it.

For `Nc1ccn([C@@H]2O[C@H](COP(=O)(O)OP(=O)(O)OP(=O)(O)O)[C@@H](O)[C@H]2O)c(=O)n1` [CTP], the “Ratio of metabolite abundance, Exp1_1hr” value was 0.8417; the “Ratio of metabolite abundance, Exp1_3hr” value turned out to be 0.6895; the “Ratio of metabolite abundance, Exp1_6hr” value amounted to 0.6055; the “Ratio of metabolite abundance, Exp2_1hr” value is given as 0.8987. Further, the “Ratio of metabolite abundance, Exp2_3hr” value was found to be 0.9317; the “Ratio of metabolite abundance, Exp2_6hr” value is listed as 0.7353; the “Ratio of metabolite abundance, Exp3_1hr” value came out at 0.7379; the “Ratio of metabolite abundance, Exp3_3hr” value turned out to be 0.8137. Further, the “Ratio of metabolite abundance, Exp3_6hr” value was 0.693.
In the case of `CC(C)CCC[C@@H](C)[C@H]1CC[C@H]2[C@@H]3CC=C4C[C@@H](OS(=O)(=O)O)CC[C@]4(C)[C@H]3CC[C@]12C` [Cholesteryl sulfate], the “Ratio of metabolite abundance, Exp1_1hr” value amounted to 0.8398; the “Ratio of metabolite abundance, Exp1_3hr” value amounted to 0.919; the “Ratio of metabolite abundance, Exp1_6hr” value was 0.8716; the “Ratio of metabolite abundance, Exp2_1hr” value is 0.7894. The “Ratio of metabolite abundance, Exp2_3hr” value turned out to be 1.057; the “Ratio of metabolite abundance, Exp2_6hr” value was found to be 0.9329; the “Ratio of metabolite abundance, Exp3_1hr” value is 0.813; the “Ratio of metabolite abundance, Exp3_3hr” value was determined as 0.7802. For the same compound, the “Ratio of metabolite abundance, Exp3_6hr” value stood at 0.8279.
As to `CC(C)(COP(=O)(O)OP(=O)(O)OC[C@H]1O[C@@H](n2cnc3c(N)ncnc32)[C@H](O)[C@@H]1OP(=O)(O)O)[C@@H](O)C(=O)NCCC(=O)NCCS` [CoA], the “Ratio of metabolite abundance, Exp1_1hr” value worked out at 0.7833; the “Ratio of metabolite abundance, Exp1_3hr” value is listed as 0.6851; the “Ratio of metabolite abundance, Exp1_6hr” value came out at 0.6052; the “Ratio of metabolite abundance, Exp2_1hr” value was 0.7277. In addition, the “Ratio of metabolite abundance, Exp2_3hr” value stood at 0.6878; the “Ratio of metabolite abundance, Exp2_6hr” value is 0.6949; the “Ratio of metabolite abundance, Exp3_1hr” value is 0.705; the “Ratio of metabolite abundance, Exp3_3hr” value stood at 0.6678. For the same compound, the “Ratio of metabolite abundance, Exp3_6hr” value amounted to 0.6155.
Take `O=C1O[C@H]([C@H](O)CO)[C@H](O)[C@H]1O` [D-Glucono-1-4-lactone]: the “Ratio of metabolite abundance, Exp1_1hr” value was 3.064; the “Ratio of metabolite abundance, Exp1_3hr” value is recorded as 5.2964; the “Ratio of metabolite abundance, Exp1_6hr” value is given as 6.162; the “Ratio of metabolite abundance, Exp2_1hr” value is 1.636. In addition, the “Ratio of metabolite abundance, Exp2_3hr” value is given as 4.1814; the “Ratio of metabolite abundance, Exp2_6hr” value is on record as 4.766; the “Ratio of metabolite abundance, Exp3_1hr” value came to 5.473; the “Ratio of metabolite abundance, Exp3_3hr” value was found to be 2.843. The “Ratio of metabolite abundance, Exp3_6hr” value was determined as 3.44.
For the compound `CC(C)C[C@H](NC(=O)[C@H](C)NC(=O)[C@@H](N)CC(=O)O)C(=O)N[C@H](C(=O)O)[C@@H](C)O` [DALT] (H-DALT-OH), the “Ratio of metabolite abundance, Exp1_1hr” value is given as 0.634; the “Ratio of metabolite abundance, Exp1_3hr” value was found to be 0.4153; the “Ratio of metabolite abundance, Exp1_6hr” value stood at 1.635; the “Ratio of metabolite abundance, Exp2_1hr” value came out at 0.755. The “Ratio of metabolite abundance, Exp2_3hr” value is recorded as 0.5469; the “Ratio of metabolite abundance, Exp2_6hr” value is 1.439; the “Ratio of metabolite abundance, Exp3_1hr” value is given as 0.7343; the “Ratio of metabolite abundance, Exp3_3hr” value was 0.6802. Moreover, the “Ratio of metabolite abundance, Exp3_6hr” value is 1.903.
`CC(C)[C@H](NC(=O)[C@H](CCC(=O)O)NC(=O)[C@@H](N)CC(=O)O)C(=O)NCC(=O)O` [DEVG] (H-DEVG-OH): the “Ratio of metabolite abundance, Exp1_1hr” value was 1.013; the “Ratio of metabolite abundance, Exp1_3hr” value came to 0.6309; the “Ratio of metabolite abundance, Exp1_6hr” value is 0.8753; the “Ratio of metabolite abundance, Exp2_1hr” value was 0.8701. For the same compound, the “Ratio of metabolite abundance, Exp2_3hr” value is listed as 1.059; the “Ratio of metabolite abundance, Exp2_6hr” value is 1.02; the “Ratio of metabolite abundance, Exp3_1hr” value was determined as 1.139; the “Ratio of metabolite abundance, Exp3_3hr” value is listed as 1.261. For the same compound, the “Ratio of metabolite abundance, Exp3_6hr” value amounted to 0.9839.
Regarding `CCCCC/C=C\C/C=C\C/C=C\CCCCCCC(=O)O` [DGLA], the “Ratio of metabolite abundance, Exp1_1hr” value is recorded as 0.6512; the “Ratio of metabolite abundance, Exp1_3hr” value worked out at 0.4296; the “Ratio of metabolite abundance, Exp1_6hr” value was 1.744; the “Ratio of metabolite abundance, Exp2_1hr” value came to 0.832. The “Ratio of metabolite abundance, Exp2_3hr” value is 0.6938; the “Ratio of metabolite abundance, Exp2_6hr” value amounted to 1.456; the “Ratio of metabolite abundance, Exp3_1hr” value was 0.7202; the “Ratio of metabolite abundance, Exp3_3hr” value was found to be 0.7277. Moreover, the “Ratio of metabolite abundance, Exp3_6hr” value is on record as 2.242.
Turning to `CC(C)C[C@H](NC(=O)[C@@H](N)CC(=O)O)C(=O)N[C@@H](CO)C(=O)O` [DLS] (H-Asp-Leu-Ser-OH), the “Ratio of metabolite abundance, Exp1_1hr” value is recorded as 0.4981; the “Ratio of metabolite abundance, Exp1_3hr” value stood at 0.5494; the “Ratio of metabolite abundance, Exp1_6hr” value amounted to 0.8725; the “Ratio of metabolite abundance, Exp2_1hr” value is on record as 0.8907. Besides, the “Ratio of metabolite abundance, Exp2_3hr” value was 0.8658; the “Ratio of metabolite abundance, Exp2_6hr” value stood at 1.124; the “Ratio of metabolite abundance, Exp3_1hr” value came to 0.9354; the “Ratio of metabolite abundance, Exp3_3hr” value is 0.5821. Moreover, the “Ratio of metabolite abundance, Exp3_6hr” value was found to be 0.7887.
As to `O=C1CC(C(=O)O)NC(=O)N1` (stereo not drawn) [Dihydroorotate], the “Ratio of metabolite abundance, Exp1_1hr” value was determined as 0.7855; the “Ratio of metabolite abundance, Exp1_3hr” value is recorded as 0.5689; the “Ratio of metabolite abundance, Exp1_6hr” value is listed as 0.4919; the “Ratio of metabolite abundance, Exp2_1hr” value was 0.9051. The “Ratio of metabolite abundance, Exp2_3hr” value is reported as 0.4712; the “Ratio of metabolite abundance, Exp2_6hr” value was 0.6702; the “Ratio of metabolite abundance, Exp3_1hr” value was 0.4693; the “Ratio of metabolite abundance, Exp3_3hr” value was determined as 0.4085. The “Ratio of metabolite abundance, Exp3_6hr” value is on record as 0.3763.
As to `N[C@@H](CCC(=O)O)C(=O)N[C@@H](CO)C(=O)N[C@@H](Cc1ccccc1)C(=O)NCC(=O)O` [ESFG] (H-ESFG-OH), the “Ratio of metabolite abundance, Exp1_1hr” value amounted to 1.207; the “Ratio of metabolite abundance, Exp1_3hr” value is 0.8233; the “Ratio of metabolite abundance, Exp1_6hr” value was determined as 1.441; the “Ratio of metabolite abundance, Exp2_1hr” value came to 1.518. Besides, the “Ratio of metabolite abundance, Exp2_3hr” value is on record as 1.053; the “Ratio of metabolite abundance, Exp2_6hr” value amounted to 1.4585; the “Ratio of metabolite abundance, Exp3_1hr” value was found to be 1.266; the “Ratio of metabolite abundance, Exp3_3hr” value is given as 0.9822. Also, the “Ratio of metabolite abundance, Exp3_6hr” value was 1.358.
For `CC(C)[C@H](NC(=O)[C@@H](N)CCC(=O)O)C(=O)NCC(=O)NCC(=O)O` [EVGG] (H-EVGG-OH), the “Ratio of metabolite abundance, Exp1_1hr” value is listed as 1.013; the “Ratio of metabolite abundance, Exp1_3hr” value is given as 0.7941; the “Ratio of metabolite abundance, Exp1_6hr” value came out at 0.8262; the “Ratio of metabolite abundance, Exp2_1hr” value was found to be 1.036. Also, the “Ratio of metabolite abundance, Exp2_3hr” value amounted to 0.9151; the “Ratio of metabolite abundance, Exp2_6hr” value is on record as 0.9384; the “Ratio of metabolite abundance, Exp3_1hr” value was 0.988; the “Ratio of metabolite abundance, Exp3_3hr” value was 0.9676. Also, the “Ratio of metabolite abundance, Exp3_6hr” value is on record as 0.8158.
For `O=C[C@H](O)[C@H](O)COP(=O)(O)O` [Erythrose 4-phosphate], the “Ratio of metabolite abundance, Exp1_1hr” value worked out at 0.8874; the “Ratio of metabolite abundance, Exp1_3hr” value is 1.021; the “Ratio of metabolite abundance, Exp1_6hr” value is 0.7492; the “Ratio of metabolite abundance, Exp2_1hr” value is given as 0.7497. Moreover, the “Ratio of metabolite abundance, Exp2_3hr” value is 0.9809; the “Ratio of metabolite abundance, Exp2_6hr” value is 0.8462; the “Ratio of metabolite abundance, Exp3_1hr” value was 0.7238; the “Ratio of metabolite abundance, Exp3_3hr” value is given as 0.584. Further, the “Ratio of metabolite abundance, Exp3_6hr” value is 0.3651.
For `Cc1cc2nc3c(=O)[nH]c(=O)nc-3n(C[C@H](O)[C@H](O)[C@H](O)COP(=O)(O)OP(=O)(O)OC[C@H]3O[C@@H](n4cnc5c(N)ncnc54)[C@H](O)[C@@H]3O)c2cc1C` [FAD], the “Ratio of metabolite abundance, Exp1_1hr” value came to 0.999; the “Ratio of metabolite abundance, Exp1_3hr” value amounted to 0.6842; the “Ratio of metabolite abundance, Exp1_6hr” value is 0.7003; the “Ratio of metabolite abundance, Exp2_1hr” value worked out at 0.9752. In addition, the “Ratio of metabolite abundance, Exp2_3hr” value was 0.8156; the “Ratio of metabolite abundance, Exp2_6hr” value was found to be 0.7377; the “Ratio of metabolite abundance, Exp3_1hr” value is 0.855; the “Ratio of metabolite abundance, Exp3_3hr” value is listed as 0.7422. The “Ratio of metabolite abundance, Exp3_6hr” value was found to be 0.5377.
Turning to `Cc1cc2nc3c(=O)[nH]c(=O)nc-3n(C[C@H](O)[C@H](O)[C@H](O)COP(=O)(O)O)c2cc1C` [FMN], the “Ratio of metabolite abundance, Exp1_1hr” value was determined as 0.8812; the “Ratio of metabolite abundance, Exp1_3hr” value amounted to 0.6056; the “Ratio of metabolite abundance, Exp1_6hr” value is reported as 0.6532; the “Ratio of metabolite abundance, Exp2_1hr” value is on record as 1.341. For the same compound, the “Ratio of metabolite abundance, Exp2_3hr” value was determined as 1.123; the “Ratio of metabolite abundance, Exp2_6hr” value is 0.8423; the “Ratio of metabolite abundance, Exp3_1hr” value was 0.5112; the “Ratio of metabolite abundance, Exp3_3hr” value amounted to 0.5214. Moreover, the “Ratio of metabolite abundance, Exp3_6hr” value turned out to be 0.5073.
Regarding `O=P(O)(O)OC[C@H]1O[C@](O)(COP(=O)(O)O)[C@@H](O)[C@@H]1O` [Fructose-1-6-bisphosphate], the “Ratio of metabolite abundance, Exp1_1hr” value was determined as 2.629; the “Ratio of metabolite abundance, Exp1_3hr” value stood at 3.883; the “Ratio of metabolite abundance, Exp1_6hr” value came to 1.856; the “Ratio of metabolite abundance, Exp2_1hr” value turned out to be 2.007. Also, the “Ratio of metabolite abundance, Exp2_3hr” value stood at 1.872; the “Ratio of metabolite abundance, Exp2_6hr” value came to 1.498; the “Ratio of metabolite abundance, Exp3_1hr” value is on record as 1.953; the “Ratio of metabolite abundance, Exp3_3hr” value was 1.49. In addition, the “Ratio of metabolite abundance, Exp3_6hr” value worked out at 0.822.
